Assay results as given in ChEMBL document CHEMBL1201862, “PubChem BioAssay data set” (2004).
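Each compound was tested at five concentrations against cells in 96-well plates for 48 hours. At the GI50, growth is halved.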 Activity calls are given as the source filed them. Rule as the data show it: active = GI50 up to about 1.1 µM and inactive = higher.

Key:
Assay in all cases: growth of human tumour cells (NCI), 48 h
[1] = test system: MDA-MB-231
[2] = test system: UACC-257
[3] = test system: MDA-MB-435
[4] = test system: OVCAR-4
[5] = test system: SK-MEL-28
[6] = test system: K562
[7] = test system: OVCAR-8
[8] = test system: KM12
[9] = test system: SF-539
[10] = test system: HCT-15
[11] = test system: SF-268
[12] = test system: SR
[13] = test system: HOP-62
[14] = test system: UO-31
[15] = test system: NCI-H460
[16] = test system: MOLT-4
[17] = test system: MCF7
[18] = test system: A549
[19] = test system: EKVX
[20] = test system: COLO 205
[21] = test system: OVCAR-5
[22] = test system: SN12C
[23] = test system: HCT-116
[24] = test system: HL-60
[25] = test system: NCI-H23
[26] = test system: UACC-62
[27] = test system: CCRF-CEM
[28] = test system: M14
[29] = test system: SK-OV-3
[30] = test system: SNB-19
[31] = test system: DU-145
[32] = test system: SW-620
[33] = test system: BT-549
[34] = test system: TK-10
[35] = test system: HOP-92
[36] = test system: 786-0
[37] = test system: T47D
[38] = test system: HCC 2998
[39] = test system: U-251
[40] = test system: SNB-75
[41] = test system: PC-3
[42] = test system: NCI-H522
[43] = test system: OVCAR-3
[44] = test system: IGROV-1
[45] = test system: SK-MEL-5
[46] = test system: HT-29
[47] = test system: SF-295
[48] = test system: NCI/ADR-RES
[49] = test system: LOX IMVI
[50] = test system: CAKI-1
[51] = test system: Hs-578T
[52] = test system: SK-MEL-2
[53] = test system: RXF 393
[54] = test system: RPMI-8226
[55] = test system: A498
[56] = test system: NCI-H226
[57] = test system: Malme-3M
[58] = test system: ACHN
[59] = test system: MDA-N

SMILES: c1cc2sc1CSCCSCCSC2
- GI50 [1]: > 100 µM (inactive)
- GI50 [2]: > 100 µM (inactive)
- GI50 [3]: > 100 µM (inactive)
- GI50 [4]: > 100 µM (inactive)
- GI50 [5]: > 100 µM (inactive)
- GI50 [6]: > 100 µM (inactive)
- GI50 [7]: > 100 µM (inactive)
- GI50 [8]: > 100 µM (inactive)
- GI50 [9]: > 100 µM (inactive)
- GI50 [10]: > 100 µM
- GI50 [11]: > 100 µM (inactive)
- GI50 [12]: > 100 µM (inactive)
- GI50 [13]: > 100 µM (inactive)
- GI50 [14]: > 100 µM (inactive)
- GI50 [15]: > 100 µM (inactive)
- GI50 [16]: > 100 µM (inactive)
- GI50 [17]: > 100 µM (inactive)
- GI50 [18]: > 100 µM (inactive)
- GI50 [19]: > 100 µM (inactive)
- GI50 [20]: > 100 µM (inactive)
- GI50 [21]: > 100 µM (inactive)
- GI50 [22]: > 100 µM (inactive)
- GI50 [23]: > 100 µM (inactive)
- GI50 [24]: > 100 µM (inactive)
- GI50 [25]: > 100 µM (inactive)
- GI50 [26]: > 100 µM (inactive)
- GI50 [27]: > 100 µM (inactive)
- GI50 [28]: > 100 µM (inactive)
- GI50 [29]: > 100 µM (inactive)
- GI50 [30]: > 100 µM (inactive)
- GI50 [31]: > 100 µM (inactive)
- GI50 [32]: > 100 µM (inactive)
- GI50 [33]: > 100 µM (inactive)
- GI50 [34]: > 100 µM (inactive)
- GI50 [35]: > 100 µM (inactive)
- GI50 [36]: > 100 µM (inactive)
- GI50 [37]: > 100 µM (inactive)
- GI50 [38]: > 100 µM (inactive)
- GI50 [39]: > 100 µM (inactive)
- GI50 [40]: > 100 µM (inactive)
- GI50 [41]: > 100 µM (inactive)
- GI50 [42]: > 100 µM (inactive)
- GI50 [43]: > 100 µM (inactive)
- GI50 [44]: > 100 µM (inactive)
- GI50 [45]: > 100 µM (inactive)
- GI50 [46]: > 100 µM (inactive)
- GI50 [47]: > 100 µM (inactive)
- GI50 [48]: > 100 µM (inactive)
- GI50 [49]: > 100 µM (inactive)

SMILES: CCN1C(=O)/C(=C\Nc2ccccc2)S/C1=N/Nc1ncc(CC(=O)Nc2ccccc2C)s1
- GI50 [1]: > 100 µM (inactive)
- GI50 [2]: > 100 µM (inactive)
- GI50 [3]: > 100 µM (inactive)
- GI50 [4]: > 100 µM (inactive)
- GI50 [50]: > 100 µM (inactive)
- GI50 [5]: > 100 µM (inactive)
- GI50 [6]: 43.6 µM (inactive)
- GI50 [7]: 71.6 µM (inactive)
- GI50 [8]: 74 µM (inactive)
- GI50 [9]: > 100 µM (inactive)
- GI50 [10]: > 100 µM
- GI50 [51]: 45.6 µM (inactive)
- GI50 [11]: 88.5 µM (inactive)
- GI50 [12]: 38.2 µM (inactive)
- GI50 [13]: > 100 µM (inactive)
- GI50 [14]: 38.7 µM (inactive)
- GI50 [15]: 29.1 µM (inactive)
- GI50 [16]: 51.5 µM (inactive)
- GI50 [17]: 82.2 µM (inactive)
- GI50 [18]: 58.2 µM (inactive)
- GI50 [52]: > 100 µM (inactive)
- GI50 [19]: > 100 µM (inactive)
- GI50 [20]: > 100 µM (inactive)
- GI50 [21]: > 100 µM (inactive)
- GI50 [22]: > 100 µM (inactive)
- GI50 [23]: > 100 µM (inactive)
- GI50 [24]: 42.6 µM (inactive)
- GI50 [25]: > 100 µM (inactive)
- GI50 [26]: 83.6 µM (inactive)
- GI50 [27]: 82.6 µM (inactive)
- GI50 [53]: > 100 µM (inactive)
- GI50 [28]: > 100 µM (inactive)
- GI50 [29]: > 100 µM (inactive)
- GI50 [30]: > 100 µM (inactive)
- GI50 [31]: > 100 µM (inactive)
- GI50 [32]: > 100 µM (inactive)
- GI50 [34]: 75.5 µM (inactive)
- GI50 [54]: 36.5 µM (inactive)
- GI50 [35]: 67.6 µM (inactive)
- GI50 [36]: > 100 µM (inactive)
- GI50 [37]: 45.3 µM (inactive)
- GI50 [38]: 91 µM (inactive)
- GI50 [39]: 60.5 µM (inactive)
- GI50 [40]: 28.4 µM (inactive)
- GI50 [41]: 44.9 µM (inactive)
- GI50 [55]: > 100 µM (inactive)
- GI50 [42]: 63.8 µM (inactive)
- GI50 [43]: 43.7 µM (inactive)
- GI50 [56]: 11.2 µM (inactive)
- GI50 [44]: > 100 µM (inactive)
- GI50 [45]: 46.5 µM (inactive)
- GI50 [57]: > 100 µM (inactive)
- GI50 [46]: 33.7 µM (inactive)
- GI50 [47]: 64.7 µM (inactive)
- GI50 [48]: 45 µM (inactive)
- GI50 [58]: 83.8 µM (inactive)
- GI50 [59]: > 100 µM (inactive)
- GI50 [49]: > 100 µM (inactive)
